Eleven substances from patent US20240181081A1, “Compositions and Methods for Treatment of Myotonic Dystrophy Type 1 with CRISPR/SACAS9” (Vertex Pharmaceuticals Incorporated, priority 2021, published 2024) can be followed below.

In series [1] the test system is 3′ UTR of the human DMPK gene. The series is described as follows: SINGLE-cut screening: indel editing by Sanger sequencing and ICE analysis in primary DM1 patient myoblasts. Format: cell-based. On the set-up: unit not given here. The settings on record: ICE analysis, vehicle-treated DM1 myoblasts, SaCas9 RNP nucleofection, 72 hrs post nucleofection. How it is done:
Genomic DNA of DM1 myoblasts was isolated with the Kingfisher Flex purification system (Thermal Fisher) in 96-well format following the manufacturer's instruction. The DMPK 3′ UTR region was amplified using GoTaq Green Master Mix (Promega) and PCR primers flanking the 3′ UTR region. The forward primer sequence was […] (SEQ ID NO: 723), and the reverse primer sequence was […] (SEQ ID NO: 724). Amplification was conducted using the following cycling parameters: 1 cycle at 95° C. for 2 min; 40 cycles of 95° C. for 30 sec, 63° C. for 30 sec, and 72° C. for 90 sec; 1 cycle at 72° C. for 5 min. Only the wild type allele was amplified by the PCR reaction. The PCR products were analyzed on the Tape Station system with High Sensitivity D5000 ScreenTape (Agilent Technologies).
PCR products were sent to GeneWiz for purification and Sanger sequencing. Sequencing primer UTRsF3 (AATGACGAGTTCGGACGG) (SEQ ID NO: 725) was used for sequencing upstream sgRNAs, and the reverse PCR primer ([…]) (SEQ ID NO: 724) was used for sequencing downstream sgRNAs. Indel values were estimated using the ICE analysis algorithm (Synthego) with the chromatogram files obtained from Sanger sequencing.
(§1) Primary healthy myoblasts (P01431-18F) and DM1 patient myoblasts (03001-32F) were obtained from Cook MyoSite. Myoblasts were cultured in myoblast growth medium consisting of Myotonic Basal Medium (Cook MyoSite, MB-2222) and MyoTonic Growth Supplement (Cook MyoSite, MS-3333). Three days before nucleofection, primary human myoblasts were further purified with EasySep Human CD56 Positive Selection Kit II (StemCell Tech, 17855) following the manufacturer's instruction, and then maintained in myoblast growth medium until nucleofection.
(§2) RNPs were assembled with recombinant SaCas9 protein (Aldevron) and chemically modified sgRNAs (Synthego) at a ratio of 1:3 (protein:sgRNA). For SINGLE-cut screening, RNP complexes were assembled with 30 pmol of SaCas9 and 90 pmol of sgRNA in P5 Primary Cell Nucleofector Solution (Lonza). After incubation at room temperature for 20 minutes, 10 μL of RNP complex was mixed with two hundred thousand primary myoblasts resuspended in 10 μL of P5 Nucleofector Solution. For DOUBLE-cut screening, RNP complexes were first assembled for individual sgRNAs with 20 pmol of SaCas9 protein and 60 pmol of sgRNAs in 5 μL of P5 Nucleofector Solution. After incubation at room temperature for 20 minutes, the two RNP complexes (one for upstream sgRNA and one for downstream sgRNA) were mixed at 1:1 ratio and then further mixed with two hundred thousand primary myoblasts resuspended in 10 μL of P5 Nucleofector Solution.
(§3) The Nucleofector 96-well Shuttle System (Lonza) was used to deliver the SaCa9/sgRNA RNPs into primary DM1 patient myoblasts using the nucleofection program CM138. Following nucleofection, myoblasts from each well of nucleofection shuttle were split into six wells of the 96-well cell culture plate (Greiner, 655090) coated with matrigel. The first three wells were treated with DMSO for 48 hrs before changing to fresh myoblast growth medium, and the other three wells were treated with 3 μM of DNA-PKi Compound 6 for 48 hrs before changing to fresh myoblast growth medium. 72 hrs post nucleofection, two wells of DMSO-treated myoblasts and two wells of DNA-PKi-treated myoblasts from each nucleofection were harvested for genomic DNA extraction using the Kingfisher Flex purification system (Thermal Fisher), whereas one well of DMSO-treated myoblasts and one well of DNA-PKi-treated myoblasts were stained for RNA foci by FISH staining.
To assess the efficiency of INDEL editing and CTG repeat excision, SINGLE-cut screening was performed in which individual SaCas9 sgRNAs were assembled with recombinant SaCas9 protein into ribonucleoprotein (RNP) and delivered into primary DM1 patient myoblasts with Amaxa 4D-Nucleofector. […]

The subject of series [2] is CUG RNA foci in primary DM1 patient myoblasts. As to the kind of experiment: SINGLE-cut screening: FISH staining of RNA foci in primary DM1 patient myoblasts. Format: cell-based, human. The settings on record: single sgRNA RNP, 72 hrs post nucleofection; for % of CUG foci free nuclei (DNA-PKi): 3 μM DNA-PKi Compound 6 for 48 hrs; for % of CUG foci free nuclei (Vehicle): DMSO 48 hrs. How it is done: as §1, §2, §3
Primary myoblasts were fixed for 15 min with 4% paraformaldehyde (PFA) and washed five times with 1×PBS for 10 min each at room temperature. Before staining, cells were permeabilized with 0.5% triton X-100 in 1×PBS for 5 min at room temperature, and then washed with 30% formamide and 2× saline-sodium citrate (SSC) mixture for 10 min at room temperature. Cells were then stained with 1 ng/μL of Cy3-PNA(CAG) 5 probe (PNA Bio, F5001) diluted in 30% formamide, 2×SSC, 2 μg/mL BSA, 66 μg/mL yeast tRNA, and 2 mM vanadyl complex for 15 min at 80° C. Following probe staining, cells were then washed in 30% formamide and 2×SSC mixture for 30 min at 42° C., then washed in 30% formamide and 2×SSC mixture for 30 min at 37° C., and then washed in 1×SSC solution for 10 min at room temperature, and finally washed in 1×PBS for 10 min at room temperature. Cells were next stained with anti-MBNL1 antibody (Santa Cruz, 3A4) diluted in 1% bovine serum albumin (BSA) for overnight at 4° C., and washed twice with 1×PBS for 10 min each at room temperature. Cells were then incubated with the secondary antibody goat […] Alexa 647 (Thermo Fisher, A32728) diluted in 1% BSA for 1 hr at room temperature, and washed twice with 1×PBS for 10 min each at room temperature. Next, cells were stained with Hoechst solution (Thermo Fisher, H3569) at 0.1 mg/ml for 5 min, and washed once with 1×PBS for 5 min. PBS was aspirated and fresh 100 μl of fresh PBS was added to each well. High-throughput acquisition of images was completed with the ImageXpress Micro Confocal High-Content Imaging System (Molecular Devices). […]

The subject of series [3] is CTG repeat expansion in the 3′ UTR of human DMPK gene. The series is described as follows: DOUBLE-cut screening: CTG repeat excision by loss-of-signal ddPCR in primary DM1 patient myoblasts. It is filed as cell-based. To be noted: sgRNA pair RNP, mean of upstream and downstream ddPCR assays. The method in brief: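 Paired upstream/downstream sgRNAs, each as RNP with recombinant SaCas9 (20 pmol protein:60 pmol sgRNA), mixed 1:1 and nucleofected into primary DM1 myoblasts; cells then given DMSO or 3 μM DNA-PKi Compound 6 for 48 hrs. Genomic DNA taken 72 hrs post-nucleofection; excision is mean of upstream and downstream loss-of-signal ddPCR, normalized to DMPK exon 1 reference.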

The test system of series [4] is CUG RNA foci in primary DM1 patient myoblasts. The series is described as follows: DOUBLE-cut screening: FISH staining of RNA foci in primary DM1 patient myoblasts. To be noted: sgRNA pair RNP, 72 hrs post nucleofection. Format: cell-based, human. The method in brief:
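Primary DM1 patient myoblasts nucleofected with paired upstream/downstream sgRNA–SaCas9 RNPs (20 pmol protein, 60 pmol sgRNA each), then treated 48 hrs with DMSO or 3 μM DNA-PK inhibitor. At 72 hrs post nucleofection, CUG foci stained by Cy3-PNA(CAG)5 FISH with MBNL1 co-staining and quantified by high-content confocal imaging.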

The subject of series [5] is CUG foci in DM1 patient myotubes. As to the kind of experiment: ssAAV transduction of DM1 patient myoblast-differentiated myotubes, RNA foci staining. Format: cell-based, human. To be noted: sgRNA pairs delivered by ssAAV, no DNA-PKi, day 15 post transduction. On the procedure:
In the second round of evaluation, ssAAV virus were produced at relative large scale for ally configurations, AAV titer was assessed by ddPCR, and AAV genome integrity was assessed by Alkaline gel, then all 5 ssAAVs were used to transduce in vitro differentiated DM1 patient myotubes (FIG. 18C). In general, primary DM1 patient myoblasts were differentiated for 5 days to form postmitotic, multinucleated myotubes, and AAV transduction was performed on Day 5 with the treatment of neuraminidase (3.33 Units/mL). Infected myotubes were then treated with DMSO (vehicle) or 3 μM of Compound 6 (DNA-PKi) for 72 hours. Myotube samples were kept in differentiation media until fixation on day 3, 5, 10 and 15 post infection, and subjected to RNA foci staining (FIG. 18D (vehicle) and 18E (DNA-PKi)).
To assess the foci reduction efficiency of the top 5 sgRNA pairs from DOUBLE-cut screening, ssAAV viruses were produced for ally pairs (SaD4+SaU4; SaD10+SaU4; SaD4+SaU8; SaD4+SaU2; and SaU4+SaDS) together with a sixth pair: SaU7 (SEQ ID NO: 7)+SaD10 (SEQ ID NO: 18), which has been used for previous optimization processes (FIG. 19A). AAV infection was performed as described herein, and for this analysis, DNA-PKi treatment was not included. For the control group, in addition to non-treated ctrl (NTC), a GFP control group (GFP) was included with the same AAV-v2 configuration as CK8e-SaCas9, but with guides targeting a GFP sequence which should not bind to any human sequence, and where the myotubes are fixed only at day 15 post transduction for Foci staining (FIG. 19B). […] Similar trends were observed from the quantification of average foci number per myonuclei (FIG. 19D).

As for “SaD18: SaCas9 sgRNA downstream of DMPK CTG repeat; protospacer GGGCCTTTTATTCGCGAGGGTC (listed as DNA, chemistry not fully specified)”, in series [1], the “Indel score_Mean” value turned out to be 17.25. In series [2], the “% of CUG foci free nuclei (DNA-PKi)” value worked out at 12.89% and the “% of CUG foci free nuclei (Vehicle)” value amounted to 3.11%.

As to “SaD19: SaCas9 sgRNA downstream of DMPK CTG repeat; protospacer AGGACCCCCACCCCCGACCCTC (listed as DNA, chemistry not fully specified)”, the “Indel score_Mean” value in series [1] is listed as 37.25. In addition, in series [2], the “% of CUG foci free nuclei (DNA-PKi)” value was determined as 9.27% and the “% of CUG foci free nuclei (Vehicle)” value was 5.14%.

In the case of “SaD20: SaCas9 sgRNA downstream of DMPK CTG repeat; protospacer AGATGGAGGGCCTTTTATTCGC (listed as DNA, chemistry not fully specified)”, the “Indel score_Mean” value in series [1] worked out at 38.50. Besides, in series [2], the “% of CUG foci free nuclei (DNA-PKi)” value was 14.65% and the “% of CUG foci free nuclei (Vehicle)” value was found to be 6.59%.

Take “SaU2 + SaD4: SaCas9 sgRNA pair, SEQ ID NOs: 2 and 12 (guide 1 ACTCAGTCTTCCAACGGGGCCC; guide 2 ACTTTGCGAACCAACGATAGGT; listed as DNA, chemistry not fully specified)”: the “% of CTG repeat excision efficiency by ddPCR (DNA-PKi)” value in series [3] (3 μM Compound 6 for 48 hrs) was 59.76%. Also, the “% of CTG repeat excision efficiency by ddPCR (Vehicle)” value in series [3] (DMSO 48 hrs) is 41.89%. Besides, in series [4] (3 μM Compound 6 for 48 hrs), the “% of CUG foci free nuclei (DNA-PKi)” value is reported as 88.39%. Besides, the “% of CUG foci free nuclei (Vehicle)” value in series [4] (DMSO 48 hrs) turned out to be 85.13%. In addition, the foci-free myonuclei in series [5] was 33.7%.

For the substance “SaU2: SaCas9 sgRNA upstream of DMPK CTG repeat; protospacer ACTCAGTCTTCCAACGGGGCCC (listed as DNA, chemistry not fully specified)”, in series [1], the “Indel score_Mean” value was 57.00. Besides, in series [2], the “% of CUG foci free nuclei (DNA-PKi)” value is on record as 27.06% and the “% of CUG foci free nuclei (Vehicle)” value is on record as 13.46%.

Turning to “SaU3: SaCas9 sgRNA upstream of DMPK CTG repeat; protospacer ACTCCGGGGCCCCGTTGGAAGA (listed as DNA, chemistry not fully specified)”, the “Indel score_Mean” value in series [1] turned out to be 60.25. Besides, in series [2], the “% of CUG foci free nuclei (DNA-PKi)” value was found to be 30.03% and the “% of CUG foci free nuclei (Vehicle)” value stood at 17.21%.

With “SaU4: SaCas9 sgRNA upstream of DMPK CTG repeat; protospacer CCAGTTCACAACCGCTCCGAGC (listed as DNA, chemistry not fully specified)”, in series [1], the “Indel score_Mean” value came to 51.75. Further, in series [2], the “% of CUG foci free nuclei (DNA-PKi)” value is 28.65% and the “% of CUG foci free nuclei (Vehicle)” value is 18.87%.

Consider “SaU5: SaCas9 sgRNA upstream of DMPK CTG repeat; protospacer CCCCGGCCGCTAGGGGGGGGC (guide CCCCGGCCGCTAGGGGGCGGGC; listed as DNA, chemistry not fully specified)”, for which the “Indel score_Mean” value in series [1] is on record as 1.75. Besides, in series [2], the “% of CUG foci free nuclei (DNA-PKi)” value worked out at 2.63% and the “% of CUG foci free nuclei (Vehicle)” value is given as 1.81%.

For the substance “SaU6: SaCas9 sgRNA upstream of DMPK CTG repeat; protospacer CTAGCGGCCGGGGAGGGAGGGG (listed as DNA, chemistry not fully specified)”, the “Indel score_Mean” value in series [1] came to 6.75. Also, in series [2], the “% of CUG foci free nuclei (DNA-PKi)” value is listed as 14.53% and the “% of CUG foci free nuclei (Vehicle)” value is 2.15%.

With “SaU7: SaCas9 sgRNA upstream of DMPK CTG repeat; protospacer CGCGGCCGGCGAACGGGGCTCG (listed as DNA, chemistry not fully specified)”, the “Indel score_Mean” value in series [1] turned out to be 70.75. Further, in series [2], the “% of CUG foci free nuclei (DNA-PKi)” value is given as 34.12% and the “% of CUG foci free nuclei (Vehicle)” value was determined as 11.62%.

Take “SaU8: SaCas9 sgRNA upstream of DMPK CTG repeat; protospacer GGCTCGAAGGGTCCTTGTAGCC (listed as DNA, chemistry not fully specified)”: the “Indel score_Mean” value in series [1] turned out to be 51.50. In addition, in series [2], the “% of CUG foci free nuclei (DNA-PKi)” value amounted to 30.17% and the “% of CUG foci free nuclei (Vehicle)” value came to 16.60%.
